Results from PubChem BioAssay (NCI).
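1) Cells in 96-well plates. 2) Compound, 48 h, 5 concentrations. 3) Linear interpolation between surrounding doses. 4) Unreached endpoint = highest concentration. Definition used: TGI = concentration required for complete inhibition of growth.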

How the values were obtained:
Assay in all cases: NCI-60 cell line screen, 48 h
HOP-18 NSCLC = system: HOP-18 NSCLC
RPMI-8226 leukemia = system: RPMI-8226 leukemia
SF-539 CNS = system: SF-539 CNS
K-562 leukemia = system: K-562 leukemia
CCRF-CEM leukemia = system: CCRF-CEM leukemia
OVCAR-8 ovarian = system: OVCAR-8 ovarian
SN12C renal = system: SN12C renal
SNB-19 CNS = system: SNB-19 CNS
OVCAR-5 ovarian = system: OVCAR-5 ovarian
UO-31 renal = system: UO-31 renal
HL-60(TB) leukemia = system: HL-60(TB) leukemia
A498 renal = system: A498 renal
MOLT-4 leukemia = system: MOLT-4 leukemia
LOX IMVI melanoma = system: LOX IMVI melanoma
NCI-H460 lung = system: NCI-H460 lung
U251 CNS = system: U251 CNS
NCI-H522 lung = system: NCI-H522 lung
HOP-62 NSCLC = system: HOP-62 NSCLC
HCT-116 colon = system: HCT-116 colon
LXFL 529 NSCLC = system: LXFL 529 NSCLC
OVCAR-4 ovarian = system: OVCAR-4 ovarian
SF-295 CNS = system: SF-295 CNS
SK-OV-3 ovarian = system: SK-OV-3 ovarian
HT29 colon = system: HT29 colon
DLD-1 colon = system: DLD-1 colon
SF-268 CNS = system: SF-268 CNS
NCI-H226 lung = system: NCI-H226 lung
SR leukemia = system: SR leukemia
CAKI-1 renal = system: CAKI-1 renal
M19-MEL melanoma = system: M19-MEL melanoma
NCI-H23 lung = system: NCI-H23 lung
UACC-62 melanoma = system: UACC-62 melanoma
M14 melanoma = system: M14 melanoma
EKVX NSCLC = system: EKVX NSCLC
HCT-15 colon = system: HCT-15 colon
HOP-92 NSCLC = system: HOP-92 NSCLC
COLO 205 colon = system: COLO 205 colon
SNB-78 CNS = system: SNB-78 CNS
SNB-75 CNS = system: SNB-75 CNS
MALME-3M melanoma = system: MALME-3M melanoma
SK-MEL-5 melanoma = system: SK-MEL-5 melanoma
KM12 colon = system: KM12 colon
OVCAR-3 ovarian = system: OVCAR-3 ovarian
ACHN renal = system: ACHN renal
DMS 114 small cell lung = system: DMS 114 small cell lung
A549 NSCLC = system: A549 NSCLC
SW-620 colon = system: SW-620 colon
DU-145 prostate = system: DU-145 prostate
UACC-257 melanoma = system: UACC-257 melanoma
MCF7 breast = system: MCF7 breast
NCI/ADR-RES ovarian = system: NCI/ADR-RES ovarian
HCC-2998 colon = system: HCC-2998 colon
786-0 renal = system: 786-0 renal
T-47D breast = system: T-47D breast
MDA-N = system: MDA-N
PC-3 prostate = system: PC-3 prostate
BT-549 breast = system: BT-549 breast
TK-10 renal = system: TK-10 renal
RXF 393 renal = system: RXF 393 renal
IGROV1 ovarian = system: IGROV1 ovarian
MDA-MB-435 = system: MDA-MB-435
SK-MEL-28 melanoma = system: SK-MEL-28 melanoma
MDA-MB-231 breast = system: MDA-MB-231 breast
SK-MEL-2 melanoma = system: SK-MEL-2 melanoma
HS 578T breast = system: HS 578T breast

For `Cc1c2cc[n+](COC(=O)c3ccccc3)cc2c(C)c2c1[nH]c1ccccc12`, the TGI (HOP-18 NSCLC) was 1.93 µM, the TGI (RPMI-8226 leukemia) was 2.92 µM and the TGI (SF-539 CNS) was 1.48 µM. It also gave a TGI (K-562 leukemia) of 1.52 µM, a TGI (CCRF-CEM leukemia) of 2.91 µM and a TGI (OVCAR-8 ovarian) of 2.11 µM. The TGI (SN12C renal) was 1.79 µM, the TGI (SNB-19 CNS) was 52.6 µM and the TGI (OVCAR-5 ovarian) was 2.39 µM. For the same molecule, the TGI (UO-31 renal) was 4.82 µM, the TGI (HL-60(TB) leukemia) was 2.72 µM and the TGI (A498 renal) was 2.48 µM. The TGI (MOLT-4 leukemia) was 1.59 µM.
For `O=C(NC(=O)c1cn(CCN2CCNCC2)c(=O)[nH]c1=O)OCc1ccccc1`, the TGI (LOX IMVI melanoma) was > 100 µM, the TGI (NCI-H460 lung) was > 100 µM and the TGI (U251 CNS) was > 100 µM. The TGI (NCI-H522 lung) was > 100 µM, the TGI (HOP-62 NSCLC) was > 100 µM and the TGI (RPMI-8226 leukemia) was > 100 µM. The TGI (HCT-116 colon) was > 100 µM, the TGI (SF-539 CNS) was > 100 µM and the TGI (LXFL 529 NSCLC) was > 100 µM. The TGI (OVCAR-4 ovarian) was > 100 µM, the TGI (SF-295 CNS) was > 100 µM and the TGI (SK-OV-3 ovarian) was > 100 µM. The TGI (HT29 colon) was > 100 µM, the TGI (DLD-1 colon) was > 100 µM and the TGI (SF-268 CNS) was > 100 µM. For the same molecule, the TGI (K-562 leukemia) was > 100 µM, the TGI (NCI-H226 lung) was > 100 µM and the TGI (SR leukemia) was > 100 µM. The TGI (CCRF-CEM leukemia) was > 100 µM, the TGI (CAKI-1 renal) was > 100 µM and the TGI (M19-MEL melanoma) was > 100 µM. The TGI (NCI-H23 lung) was > 100 µM, the TGI (UACC-62 melanoma) was > 100 µM and the TGI (M14 melanoma) was > 100 µM. The TGI (OVCAR-8 ovarian) was > 100 µM, the TGI (SN12C renal) was > 100 µM and the TGI (EKVX NSCLC) was > 100 µM. The TGI (HCT-15 colon) was > 100 µM, the TGI (HOP-92 NSCLC) was > 100 µM and the TGI (COLO 205 colon) was > 100 µM. The TGI (SNB-78 CNS) was > 100 µM, the TGI (SNB-75 CNS) was > 100 µM and the TGI (MALME-3M melanoma) was > 100 µM. The TGI (SK-MEL-5 melanoma) was > 100 µM, the TGI (KM12 colon) was > 100 µM and the TGI (OVCAR-5 ovarian) was > 100 µM. For the same molecule, the TGI (OVCAR-3 ovarian) was > 100 µM, the TGI (ACHN renal) was > 100 µM and the TGI (HL-60(TB) leukemia) was > 100 µM. The TGI (DMS 114 small cell lung) was > 100 µM, the TGI (A549 NSCLC) was > 100 µM and the TGI (SW-620 colon) was > 100 µM. The TGI (MOLT-4 leukemia) was > 100 µM.
For `O=C(CC(=O)c1ccncc1)c1ccccc1`, the TGI (LOX IMVI melanoma) was > 100 µM, the TGI (NCI-H460 lung) was > 100 µM and the TGI (U251 CNS) was > 100 µM. For the same molecule, the TGI (NCI-H522 lung) was > 100 µM, the TGI (HOP-62 NSCLC) was > 100 µM and the TGI (RPMI-8226 leukemia) was > 100 µM. For the same molecule, the TGI (HCT-116 colon) was > 100 µM, the TGI (SF-539 CNS) was > 100 µM and the TGI (OVCAR-4 ovarian) was > 100 µM. For the same molecule, the TGI (SF-295 CNS) was > 100 µM, the TGI (SK-OV-3 ovarian) was > 100 µM and the TGI (DU-145 prostate) was > 100 µM. The TGI (UACC-257 melanoma) was > 100 µM, the TGI (MCF7 breast) was > 100 µM and the TGI (NCI/ADR-RES ovarian) was 69.3 µM. The TGI (HT29 colon) was > 100 µM, the TGI (SF-268 CNS) was > 100 µM and the TGI (K-562 leukemia) was > 100 µM. The TGI (HCC-2998 colon) was > 100 µM, the TGI (NCI-H226 lung) was > 100 µM and the TGI (SR leukemia) was > 100 µM. For the same molecule, the TGI (CCRF-CEM leukemia) was > 41.8 µM, the TGI (786-0 renal) was > 100 µM and the TGI (T-47D breast) was > 100 µM. The TGI (CAKI-1 renal) was > 100 µM, the TGI (MDA-N) was > 100 µM and the TGI (NCI-H23 lung) was > 100 µM. The TGI (UACC-62 melanoma) was > 100 µM, the TGI (M14 melanoma) was > 100 µM and the TGI (PC-3 prostate) was > 100 µM. The TGI (BT-549 breast) was > 100 µM, the TGI (TK-10 renal) was > 100 µM and the TGI (OVCAR-8 ovarian) was > 100 µM. The TGI (SN12C renal) was > 62.5 µM, the TGI (RXF 393 renal) was > 100 µM and the TGI (EKVX NSCLC) was > 100 µM. For the same molecule, the TGI (HCT-15 colon) was > 100 µM, the TGI (HOP-92 NSCLC) was > 100 µM and the TGI (COLO 205 colon) was > 100 µM. The TGI (IGROV1 ovarian) was > 100 µM, the TGI (SNB-75 CNS) was > 100 µM and the TGI (MDA-MB-435) was > 100 µM. For the same molecule, the TGI (SK-MEL-28 melanoma) was > 100 µM, the TGI (MALME-3M melanoma) was > 89.2 µM and the TGI (SK-MEL-5 melanoma) was > 100 µM. The TGI (SNB-19 CNS) was > 100 µM, the TGI (KM12 colon) was > 100 µM and the TGI (OVCAR-5 ovarian) was > 100 µM. For the same molecule, the TGI (UO-31 renal) was > 100 µM, the TGI (OVCAR-3 ovarian) was > 100 µM and the TGI (ACHN renal) was > 100 µM. For the same molecule, the TGI (MDA-MB-231 breast) was > 100 µM, the TGI (A498 renal) was > 100 µM and the TGI (SK-MEL-2 melanoma) was > 100 µM. The TGI (A549 NSCLC) was > 100 µM, the TGI (SW-620 colon) was > 100 µM and the TGI (HS 578T breast) was > 100 µM. The TGI (MOLT-4 leukemia) was > 100 µM.
